The text below walks through data of patent publication US10472687B2, “Methods to identify antituberculosis compounds” (priority 2016, dated 2019).

The test system of assay [1] is Rv2323c'::GFP strain (Rv0324-responsive promoter). It is filed as cell-based, Mycobacterium tuberculosis. The note with it: in the presence of BDQ, FIG. 2.
The subject of another assay is MTB H37Rv lacking Rv0324. It is filed as cell-based, Mycobacterium tuberculosis.
Assay [2] relates to MTB. Format: cell-based, Mycobacterium tuberculosis.
Assay [3] addresses mycobacterial F1Fo ATP synthase (Mycobacterium tuberculosis, UniProt P9WPS1+P9WPV7). Conditions: cited from earlier work.
Assay [4] relates to MTB. Conditions: cited from earlier work.
The next assay deals with MTB H37Rv wildtype. Format: cell-based, Mycobacterium tuberculosis.
The test system of a further assay is MTB H37Rv lacking Rv0880. Format: cell-based, Mycobacterium tuberculosis.

Read-outs that look alike come from different tables or passages of the source.

`COc1nc2ccc(Br)cc2cc1[C@@H](c1ccccc1)[C@@](O)(CCN(C)C)c1cccc2ccccc12` [bedaquiline]: the “GFP fluorescence of the reporter strain” value in assay [1] is given as “high level of fluorescence”. Besides, in the assay on MTB H37Rv lacking Rv0324, the “greater survival deficiency compared to the wildtype” value is 1.8 log10 and the “overall growth over seven days of treatment” value is on record as “negative overall growth”. Moreover, in the assay with MTB [2], the “decrease in Rv0880 expression” value is given as more than 2.0 absolute log2 fold-change, the “genes significantly differentially expressed compared to untreated samples” value is listed as 1,121 genes and the “increase in Rv0324 expression upon bedaquiline treatment” value is listed as more than 1.5 absolute log2 fold-change. Moreover, the “downregulated genes among the differentially expressed genes” value in the assay with MTB [2] (15 μM BDQ, 48 and 96 hours combined) came to 897 genes. Besides, the “selectivity for mycobacterial F1Fo ATP synthase” value in assay [3] is “high selectivity”. Besides, in the assay on MTB [4] (after 96 hours), the MTB killing result is reported as “effective MTB killing occurs”. The bactericidal activity result in the assay on MTB [4] (during the first 4-6 days) was “almost no bactericidal activity”. In addition, in the assay with MTB [4] (first 96 hours after BDQ treatment, even at 30 times the MIC), the bactericidal activity result was “little bactericidal activity”. Further, the “overall growth rate over seven days of treatment” value with MTB H37Rv wildtype is listed as “positive growth rate”. In addition, in the assay with MTB H37Rv lacking Rv0880, the “greater survival deficiency compared to the wildtype” value is 1.3 -fold log10 and the “overall growth over seven days of treatment” value is reported as “negative overall growth”.
